Here are results for two compounds from paper PMC5896744 (The Biochemical journal, 2017).

Structures are written as SMILES.

What all share (assay): SPR solution competition
Common to all, as to assay type: binding

Assay [1] concerns the target PKA hRIα CNB-B (234–381) (Homo sapiens, UniProt P10644).
Assay [2] deals with PKA hRIα CNB-A (115–274) (Homo sapiens, UniProt P10644, T192R).
Assay [3] deals with PKA hRIα CNB-A (115–274) (Homo sapiens, UniProt P10644).
Assay [4] concerns the target PKA hRIα CNB-B (234–381) (Homo sapiens, UniProt P10644, G316R).
Assay [5] addresses PKA hRIα CNB-B (234–381) (Homo sapiens, UniProt P10644, A336T/G316R).
For assay [6], the target named is PKA hRIα CNB-B (234–381) (Homo sapiens, UniProt P10644, A336T/G316R/V315L).
Assay [7] deals with PKA hRIα CNB-B (234–381) (Homo sapiens, UniProt P10644, V315L).
In assay [8] the target is PKA hRIα CNB-A (115–274) (Homo sapiens, UniProt P10644, A212T).
Assay [9] addresses PKA hRIα CNB-B (234–381) (Homo sapiens, UniProt P10644, G316R/V315L).
Assay [10] deals with PKA hRIα CNB-B (234–381) (Homo sapiens, UniProt P10644, A336T).
Assay [11] deals with PKA hRIα CNB-A (115–274) (Homo sapiens, UniProt P10644, A212T/T192R).

Take `O=c1[nH]cnc2c1ncn2[C@@H]1O[C@@H]2COP(=O)(O)O[C@H]2[C@H]1O` [cIMP]: the EC50 amounted to 114 ± 51 nM in [1], 156 ± 5 nM in [2], 273 ± 16 nM in assay [3] and 25 ± 9 nM in [4].

In the case of `Nc1nc2c(ncn2[C@@H]2O[C@@H]3COP(=O)(O)O[C@H]3[C@H]2O)c(=O)[nH]1` [cGMP], the EC50 turned out to be 0.4 ± 0.1 nM in assay [5]; 1530 ± 53 nM in assay [2]; 0.6 ± 0.3 nM in assay [6]; 98 ± 41 nM in assay [4]; 678 ± 100 nM in [7]; 83 ± 33 nM in assay [8]. The values for the EC50 in [9], in assay [10] and in [11] were 66 ± 2 nM, 2 ± 0.1 nM and 24 ± 5 nM, respectively.
